As usually defined, the logP is the decadic logarithm of the partition coefficient of the neutral form, usually between octanol and water. Lower therefore signals a more hydrophilic compound.

Take `CCNC(=O)c1ccsc1`: the log partition coefficient (logP) stood at 1.18.

For the molecule `Clc1ccsc1`, the log partition coefficient (logP) is 2.55.

`CCOC(=O)c1ccsc1` yielded a logP of 2.32.

Regarding `CCCOC(=O)c1cccs1`, the logP was determined as 3.01.

The molecule `CNC(=O)c1cccs1` came in with a lipophilicity (logP) of 0.84.

In the case of `COC(=O)c1cccs1`, the logP is 1.83.

As for `CCCNC(=O)c1ccsc1`, the logP was 1.65.

Take `CCCOC(=O)c1ccsc1`: the logP came out at 3.03.

On to `CNC(=O)c1ccsc1`, for which the logP was 0.81.

Molecule `COc1cccs1` registered a lipophilicity (logP) of 2.13.

Molecule `CCNC(=O)c1cccs1` gave a log partition coefficient (logP) of 1.18.

In the case of `CCCNC(=O)c1cccs1`, the logP was found to be 1.68.
